From patent publication US11629147B2, “Triazolo-pyrimidine compounds and uses thereof” (Dizal (Jiangsu) Pharmaceutical Co., Ltd., priority 2019, dated 2023)

Columns and labels:
hA2a = hA2a (Homo sapiens (Human), UniProt P29274); experiment: cAMP inhibition assay in hA2a/CHO cells; format: cell-based; conditions: 10 μM adenosine, read-out: cAMP & FLIPR IC50 (nM) hA2a
Protocol: (§1) hA2a/CHO, hA2b/CHO and mA2a/CHO(Genscript) were plated at 5×10^3 cells/well into 384-well polystyrene plates at the day of experiment. Compounds were pre-incubated with cells for 30 min at 37° C., 5% CO2. Then 10 μM adenosine was added to the cells and incubated for 30 min at 37° C., 5% CO2. Detection reagent (CISBIO) was added and the plates were incubated for 60 min at room temperature. The signal was captured by Envision.
FLIPR™ and cAMP inhibition activities of exemplary compounds in different adenosine receptor over-expressing cell lines are shown in Table 4 below.

mA2a = mA2a (Mus musculus (Mouse), UniProt Q60613); experiment: cAMP inhibition assay in mA2a/CHO cells; format: cell-based; conditions: 10 μM adenosine, read-out: cAMP & FLIPR IC50 (nM) mA2a
mA2a, sequence (Q60613 whole entry): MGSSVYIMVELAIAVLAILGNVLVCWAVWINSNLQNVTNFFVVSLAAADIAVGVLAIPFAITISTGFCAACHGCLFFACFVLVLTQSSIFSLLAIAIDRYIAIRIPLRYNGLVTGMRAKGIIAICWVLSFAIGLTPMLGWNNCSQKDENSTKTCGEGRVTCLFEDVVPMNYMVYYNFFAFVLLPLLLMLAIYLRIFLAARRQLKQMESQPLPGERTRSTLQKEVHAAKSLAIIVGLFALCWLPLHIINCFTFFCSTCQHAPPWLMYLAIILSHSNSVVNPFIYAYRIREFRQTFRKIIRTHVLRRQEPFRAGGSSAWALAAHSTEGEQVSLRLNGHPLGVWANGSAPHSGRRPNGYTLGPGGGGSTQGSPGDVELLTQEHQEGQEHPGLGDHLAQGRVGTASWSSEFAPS
Protocol: as §1

hA2a, sequence (P29274 whole entry): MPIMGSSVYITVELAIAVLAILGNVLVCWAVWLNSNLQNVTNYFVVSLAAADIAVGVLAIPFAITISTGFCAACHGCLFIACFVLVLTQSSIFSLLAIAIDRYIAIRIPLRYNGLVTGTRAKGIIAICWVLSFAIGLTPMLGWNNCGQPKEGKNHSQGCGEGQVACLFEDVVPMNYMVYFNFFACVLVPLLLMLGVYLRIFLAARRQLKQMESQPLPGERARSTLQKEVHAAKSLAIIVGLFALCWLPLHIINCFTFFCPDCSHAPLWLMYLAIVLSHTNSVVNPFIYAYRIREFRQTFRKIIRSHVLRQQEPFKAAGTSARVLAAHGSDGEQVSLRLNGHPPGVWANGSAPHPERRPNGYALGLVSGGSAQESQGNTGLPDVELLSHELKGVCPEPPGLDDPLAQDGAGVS

IC50 (hA2a): 0.1 nM
IC50 (mA2a): 1 nM
SMILES: Cc1cnc2ccc(-c3c(-c4ccc(F)cc4)nc(N)n4nc(CC5CCOC5)nc34)cn12 (single isomer, unassigned; isomer 2) [Example 105-2, 7-(4-fluorophenyl)-8-(3-methylimidazo[1,2-a]pyridin-6-yl)-2-((tetrahydrofuran-3-yl)methyl)-[1,2,4]triazolo[1,5-c]pyrimidin-5-amine (isomer 2)]
